Counter-ions that a name gives are not always drawn.
test system: von Bezold-Jarisch reflex evoked by 5-HT; test: Antagonism of the von Bezold-Jarisch reflex evoked by 5-HT in the anaesthetised rat; assay type: in vivo; details: Rattus norvegicus, iv; urethane-anaesthetised male rats; 5-HT-evoked changes in heart rate; 5-HT usually 6 μg/kg i.v.; read-out: ED50 (concentration required to reduce the 5HT-evoked response to 50% of the control response)
Experimental: Antagonism of the von Bezold-Jarisch reflex
The compounds were evaluated for antagonism of the von Bezold-Jarisch reflex evoked by 5-HT in the anaesthetised rat according to the following method:
Pharmacol. 2, 229-245 (1980). A submaximal dose of 5-HT (usually 6 μg/kg) was given repeatedly by the intravenous route and changes in heart rate quantified. Compounds were given intravenously and the concentration required to reduce the 5HT-evoked response to 50% of the control response (ED50) was then determined.

Row | Compound | ED50
1 | CN1[C@@H]2CCC[C@H]1C[C@@H](NC(=O)N1CCc3ccccc31)C2 [Example 1, endo-N-(9-Methyl-9-azabicyclo[3.3.1]non-3-yl)-2,3-dihydroindole-1-carboxamide] | 12.5 µg/kg
2 | CN1[C@@H]2CC[C@H]1C[C@@H](NC(=O)N1CCc3ccccc31)C2 [Example 2, endo-N-(8-Methyl-8-azabicyclo[3.2.1]oct-3-yl)-2,3-dihydroindole-1-carboxamide] | 1.4 µg/kg
3 | CN1[C@@H]2CC[C@H]1C[C@@H](OC(=O)N1CCc3ccccc31)C2 [Example 3, endo(8-Methyl-8-azabicyclo[3.2.1]oct-3-yl)-2,3-dihydroindole carboxylic acid ester] | 5 µg/kg
4 | CC1CN(C(=O)N[C@H]2C[C@H]3CC[C@@H](C2)N3C)c2ccccc21 (stereo partly drawn) [Example 4, endo-N-(8-Methyl-8-azabicyclo[3.2.1]oct-3-yl)-2,3-dihydro-3-methylindole-1-carboxamide hydrochloride] | 3 µg/kg
5 | CN1[C@@H]2CC[C@H]1C[C@@H](NC(=O)N1CC(C)(C)c3ccccc31)C2 [Example 5, endo-N-(8-Methyl-8-azabicyclo[3.2.1]oct-3-yl)-2,3-dihydro-3,3-dimethylindole-1-carboxamide] | 0.58 µg/kg
6 | Cc1cn(C(=O)N[C@H]2C[C@H]3CC[C@@H](C2)N3C)c2ccccc12 [Example 6, endo-N-(8-Methyl-8-azabicyclo[3.2.1]oct-3-yl)-3-methylindole-1-carboxamide hydrochloride] | 1.6 µg/kg
7 | CCN1[C@@H]2CC[C@H]1C[C@@H](NC(=O)N1CCc3ccccc31)C2 [Example 7, endo-N-(8-Ethyl-8-azabicyclo[3.2.1]oct-3-yl)-2,3-dihydroindole-1-carboxamide] | > 10 µg/kg
8 | CN1[C@@H]2CC[C@H]1C[C@@H](NC(=O)N1CCc3cc(F)ccc31)C2 [Example 8, endo-N-(8-Methyl-8-azabicyclo[3.2.1]oct-3-yl)-5-fluoro-2,3-dihydroindole-1-carboxamide hydrochloride] | 17 µg/kg
9 | CN1[C@@H]2CC[C@H]1C[C@@H](NC(=O)N1CCc3cc(Cl)ccc31)C2 [Example 9, endo-N-(8-Methyl-8-azabicyclo[3.2.1]oct-3-yl)-2,3-dihydro-5-chloroindole-1-carboxamide] | > 10 µg/kg
10 | COc1ccc2c(c1)CCN2C(=O)N[C@H]1C[C@H]2CC[C@@H](C1)N2C [Example 10, endo-N-(8-Methyl-8-azabicyclo[3.2.1]oct-3-yl)2,3-dihydro-5-methoxyindole-1-carboxamide] | 7 µg/kg
11 | CN1[C@@H]2CC[C@H]1C[C@@H](NC(=O)n1ccc3ccccc31)C2 [Example 11, endo-N-(8-Methyl-8-azabicyclo[3.2.1]oct-3-yl)indole-1-carboxamide hydrochloride] | 7.7 µg/kg
12 | Cl.O=C(NC1CN2CCC1CC2)N1CCc2ccccc21 (stereo not shown) [Example 12, N-(1-Azabicyclo[2.2.2]oct-3-yl)2,3-dihydroindole-1-carboxamide hydrochloride] | 4.4 µg/kg
13 | CCC1CN(C(=O)N[C@H]2C[C@H]3CC[C@@H](C2)N3C)c2ccccc21 (stereo partly drawn) [Example 14, endo-N-(8-Methyl-8-azabicyclo[3.2.1]oct-3-yl)-2,3-dihydro-3-ethylindole-1-carboxamide hydrochloride] | 1 µg/kg
14 | CCc1cn(C(=O)N[C@H]2C[C@H]3CC[C@@H](C2)N3C)c2ccccc12 [Example 15, endo-N-(8-Methyl-8-azabicyclo[3.2.1]-oct-3-yl)-3-ethylindole-1-carboxamide hydrochloride] | 2 µg/kg
15 | CN1[C@@H]2CC[C@H]1C[C@@H](NC(=O)N1CCc3cc([N+](=O)[O-])ccc31)C2 [Example 16, endo-N-(8-Methyl-8-azabicyclo[3.2.1]oct-3-yl)-2,3-dihydro-5-nitroindole-1-carboxamide] | > 10 µg/kg
16 | CN1[C@@H]2CC[C@H]1C[C@@H](NC(=O)N1CCc3ccc([N+](=O)[O-])cc31)C2 [Example 17, endo-N-(8-Methyl-8-azabicyclo[3.2.1]oct-3-yl)-2,3-dihydro-6-nitroindole-1-carboxamide hydrochloride] | > 10 µg/kg
17 | CC1(C)CN(C(=O)NC2CN3CCC2CC3)c2ccccc21 (stereo not shown) [Example 18, N-(1-Azabicyclo[2.2.2]oct-3-yl)2,3-dihydro-3,3-dimethylindole-1-carboxamidehydrochloride] | 5.3 µg/kg
18 | CC1Cc2ccccc2N1C(=O)N[C@H]1C[C@H]2CC[C@@H](C1)N2C (stereo partly drawn) [Example 19, (endo)-N-(8-Methyl-8-azabicyclo[3.2.1]oct-3-yl)-2,3-dihydro-2-methylindole-1-carboxamide hydrochloride] | 0.79 µg/kg
19 | CC1c2ccccc2N(C(=O)N[C@H]2C[C@H]3CC[C@@H](C2)N3C)C1C (stereo partly drawn) [Example 20, (endo)-N-(8-Methyl-8-azabicyclo[3.2.1]oct-3-yl)-2,3-dihydro-2,3-dimethylindole-1-carboxamide] | 0.53 µg/kg
20 | CC1N(C(=O)N[C@H]2C[C@H]3CC[C@@H](C2)N3C)c2ccccc2C1(C)C (stereo partly drawn) [Example 21, (endo)-N-(8-Methyl-8-azabicyclo[3.2.1]oct-3-yl)-2,3-dihydro-2,3,3-trimethylindole-1-carboxamide hydrochloride] | 1.4 µg/kg
21 | CC(C)C1CN(C(=O)N[C@H]2C[C@H]3CC[C@@H](C2)N3C)c2ccccc21 (stereo partly drawn) [Example 22, (endo)-N-(8-Methyl-8-azabicyclo[3.2.1]oct-3-yl)-2,3-dihydro-3-isopropylindole-1-carboxamide hydrochloride] | 0.56 µg/kg

same assay, conditions: i.v.; urethane-anaesthetised male rats; 5-HT-evoked changes in heart rate; 5-HT usually 6 μg/kg i.v.

Row | Compound | ED50 (concentration required to reduce the 5HT-evoked response to 50% of the control response)
22 | O=C(OC1CN2CCC1CC2)N1CCc2ccccc21 (stereo not shown) [Example 13, N-(1-Azabicyclo[2.2.2]oct-3-yl)-2,3-dihydroindole-1-carboxylic acid ester] | 3.9 µg/kg

Reference: patent US4871744A, “Certain 2,3-dihydro-indole-1-carboxamido-N-[8-azabicyclo(3.2.1)octan-3-yl]d e” (priority 1988, dated 1989)
